These results are taken from patent US5030760A, “Tetrahydrophthalimides, and their production and use” (Sumitomo Chemical Company, Ltd., priority 1981, dated 1991).

Common to all, as to assay: Test Example 7, flooded paddy pot dripping, herbicidal activity
Details in all cases: 3 weeks

One assay has as its system broad-leaved weed. The format is in vivo. The protocol: (§1) The application of the tetrahydrophthalimides (I) as herbicides will be illustratively shown in the following Examples wherein the phytotoxicity to cultivated plants and the herbicidal activity on weeds were evaluated as follows: the aerial parts of the test plants were cut off and weighed (fresh weight); the percentage of the fresh weight of the treated plant to that of the untreated plant was calculated with the latter fresh weight taken as 100; and the crop damage and the herbicidal activity were evaluated by the standard given in the table below. The rating values of phytotoxicity, 0 and 1, and those of herbicidal effect, 5 and 4, are generally regarded as satisfactory to protect cultivated plants and control weeds, respectively. The rating values in the paddy field test alone were calculated from the dry weight of the test plants.
(§2) Wagner's pots (1/5000 are) were filled with paddy field soil and water was poured therein to make a flooded condition. Rice seedlings of the 3-leaf stage were transplanted and tubers of slender spikerush and arrowhead and the seeds of barnyardgrass, monochoria and broad-leaved weed were sowed therein and grown for 5 days. When germination occurs, a designed amount of the test compound formulated into an emulsifiable concentrate according to Preparation Example 2 was applied to the pots by dripping. The test plants were grown for a further 3 weeks, and herbicidal activity and phytotoxicity were examined. The herbicidal activity was evaluated in figures ranging from 0 to 5. The phytotoxicity to the crop plants was also indicated on the same standard as that of the herbicidal activity.

The test system of another assay is slender spikerush. It is filed as in vivo, Eleocharis acicularis. The protocol:
as §1, §2

The test system of the next assay is monochoria. It is filed as in vivo, Monochoria vaginalis. The protocol:
as §1, §2

A further assay has as its system arrowhead. The format is in vivo, Sagittaria pygmaea. The protocol: as §1, §2
The subject of the next assay is barnyardgrass. It is filed as in vivo, Echinochloa crus-galli. The protocol:
as §1, §2
Also: ranges in brackets are in %.

With `O=C1C2=C(CCCC2)C(=O)N1c1ccc(Cl)cc1F` [A, 2-fluoro-4-chlorophenyltetrahydrophthalimide, reference compound], the “Herbicidal activity, Broad-leaved weed” value with broad-leaved weed (2.5 g/are) is 4 (70-89); in the assay on broad-leaved weed (5 g/are) it was 5 (90-100); in the assay on broad-leaved weed (10 g/are), 5 (90-100). Moreover, the results for the “Herbicidal activity, Slender spikerush” value in the assay with slender spikerush (2.5 g/are), in the assay on slender spikerush (5 g/are) and with slender spikerush (10 g/are) were 2 (30-49), 3 (50-69) and 4 (70-89), respectively. Besides, the entries for the “Herbicidal activity, Monochoria” value with monochoria (2.5 g/are), with monochoria (5 g/are) and in the assay with monochoria (10 g/are) were 4 (70-89), 5 (90-100) and 5 (90-100), respectively. Besides, the “Herbicidal activity, Allowhead” value is given as 2 (30-49) with arrowhead (2.5 g/are), 3 (50-69) in the assay on arrowhead (5 g/are) and 3 (50-69) with arrowhead (10 g/are). Moreover, the results for the “Herbicidal activity, Barnyardgrass” value in the assay on barnyardgrass (2.5 g/are), in the assay on barnyardgrass (5 g/are) and in the assay with barnyardgrass (10 g/are) were 1 (10-29), 3 (50-69) and 4 (70-89), respectively.
